In patent US20250333397A1 (REMIX THERAPEUTICS INC., priority 2021, published 2025):
Like-named read-outs stand apart in the source and are kept apart here.

Tests used:
Format in all cases: cell-based, human
Target C mRNA = test: RT-qPCR splicing assay panel, Target C canonical junction (CJ) mRNA; conditions: Homo sapiens, canonical junction (CJ) mRNA, RT-qPCR panel, Table 4A; read-out: Target C, decrease in CJ mRNA levels, IC50
How it was run: (§1)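 A673 or K562 cells were treated 24 h at 37 °C with an 11-point 3-fold compound dilution series, top dose 10 uM final, DMSO ≤0.25%. Lysates went to one-step RT-qPCR for canonical (CJ) and alternative-exon (AJ) junctions; ΔCt vs GAPDH, GUSB or PPIA, normalized to DMSO, as 2^(-ΔΔCt).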

MYB mRNA = test: RT-qPCR splicing assay, MYB canonical (CJ) and alternative (AJ) junction mRNA; conditions: Homo sapiens; for AC50: read-out: MYB AJ (AC50, increase in AJ mRNA)
How it was run: as §1

SMN2 mRNA = test: RT-qPCR splicing assay panel, SMN2 canonical junction (CJ) mRNA; conditions: Homo sapiens, canonical junction (CJ) mRNA, RT-qPCR panel, Table 4A; read-out: SMN2, decrease in CJ mRNA levels, IC50
How it was run: as §1

HTT mRNA = test: RT-qPCR splicing assay, HTT canonical (CJ) and alternative (AJ) junction mRNA; conditions: Homo sapiens; for AC50: read-out: HTT AJ (AC50, increase in AJ mRNA)
How it was run: as §1

[1] = 24 h, Table 3A, A673 or K562 cells, 24 h treatment
[2] = 24 h, Table 3A, A673 or K562 cells, 24 h treatment, read-out: MYB CJ (IC50, decrease in CJ mRNA)
[3] = canonical junction (CJ) mRNA, RT-qPCR panel, Table 4A, read-out: MYB, decrease in CJ mRNA levels, IC50
[4] = 24 h, Table 3A, A673 or K562 cells, 24 h treatment, read-out: HTT CJ (IC50, decrease in CJ mRNA)
[5] = canonical junction (CJ) mRNA, RT-qPCR panel, Table 4A, read-out: HTT, decrease in CJ mRNA levels, IC50

Cc1nc2ccc(-c3ccc(-c4ccc(N5CCC(NC6CCC6)C5)nn4)c(O)c3)cc2o1 (centres unmarked) [Compound 316]
IC50 (Target C mRNA): 100 to 1000 nM | AC50 (MYB mRNA; [1]): 100 to 1000 nM | IC50 (MYB mRNA; [2]): 1000 to 10000 nM | IC50 (MYB mRNA; [3]): 1000 to 10000 nM | IC50 (SMN2 mRNA): 100 to 1000 nM | AC50 (HTT mRNA; [1]): 100 to 1000 nM | IC50 (HTT mRNA; [4]): 100 to 1000 nM | IC50 (HTT mRNA; [5]): 100 to 1000 nM

Cc1cn2nc(-c3ccc(-c4ccc(N5CCC(NC6CCC6)C5)nn4)c(O)c3)cc(C)c2n1 (centres unmarked) [Compound 317]
IC50 (Target C mRNA): 100 to 1000 nM | AC50 (MYB mRNA; [1]): 100 to 1000 nM | IC50 (MYB mRNA; [2]): 100 to 1000 nM | IC50 (MYB mRNA; [3]): 100 to 1000 nM | IC50 (SMN2 mRNA): 100 to 1000 nM | AC50 (HTT mRNA; [1]): 100 to 1000 nM | IC50 (HTT mRNA; [4]): < 100 nM | IC50 (HTT mRNA; [5]): < 100 nM

Cc1cc(-c2ccc(-c3ccc(N4CCC(NC5CCC5)C4)nn3)c(O)c2)cc2cn(C)nc12 (centres unmarked) [Compound 318]
IC50 (Target C mRNA): 100 to 1000 nM | AC50 (MYB mRNA; [1]): > 10000 nM | IC50 (MYB mRNA; [2]): 1000 to 10000 nM | IC50 (MYB mRNA; [3]): 1000 to 10000 nM | IC50 (SMN2 mRNA): 100 to 1000 nM | AC50 (HTT mRNA; [1]): 100 to 1000 nM | IC50 (HTT mRNA; [4]): 100 to 1000 nM | IC50 (HTT mRNA; [5]): 100 to 1000 nM

Cn1cc2nc(-c3ccc(-c4ccc(N5CCC(NC6CCC6)C5)nn4)c(O)c3)ccc2n1 (centres unmarked) [Compound 319]
IC50 (Target C mRNA): 1000 to 10000 nM | AC50 (MYB mRNA; [1]): 100 to 1000 nM | IC50 (MYB mRNA; [2]): 1000 to 10000 nM | IC50 (MYB mRNA; [3]): 1000 to 10000 nM | IC50 (SMN2 mRNA): 100 to 1000 nM | AC50 (HTT mRNA; [1]): 100 to 1000 nM | IC50 (HTT mRNA; [4]): 100 to 1000 nM | IC50 (HTT mRNA; [5]): 100 to 1000 nM

Cn1cc2cc(-c3ccc(-c4ccc(N5CCC(NC6CCC6)C5)nn4)c(O)c3)ncc2n1 (centres unmarked) [Compound 320]
IC50 (Target C mRNA): 100 to 1000 nM | AC50 (MYB mRNA; [1]): 100 to 1000 nM | IC50 (MYB mRNA; [2]): 100 to 1000 nM | IC50 (MYB mRNA; [3]): 100 to 1000 nM | IC50 (SMN2 mRNA): < 100 nM | AC50 (HTT mRNA; [1]): 100 to 1000 nM | IC50 (HTT mRNA; [4]): 100 to 1000 nM | IC50 (HTT mRNA; [5]): 100 to 1000 nM

COc1cc(-c2cc(O)c(-c3cnc(N4CC[C@H](NC5CCC5)C4)nn3)cc2F)cnn1 [Compound 321, 2-{3-[(3S)-3-(cyclobutylamino)pyrrolidin-1-yl]-1,2,4-triazin-6-yl}-4-fluoro-5-(6-methoxypyridazin-4-yl)phenol]
IC50 (Target C mRNA): 100 to 1000 nM | AC50 (MYB mRNA; [1]): 1000 to 10000 nM | IC50 (MYB mRNA; [2]): 1000 to 10000 nM | IC50 (MYB mRNA; [3]): 1000 to 10000 nM | IC50 (SMN2 mRNA): 100 to 1000 nM | AC50 (HTT mRNA; [1]): 100 to 1000 nM | IC50 (HTT mRNA; [4]): 100 to 1000 nM | IC50 (HTT mRNA; [5]): 100 to 1000 nM

Cc1ncc(-c2cc(O)c(-c3ccc(N4CC[C@H](N(C)C(C)(C)C)C4)nn3)cc2F)s1 [Compound 322, 2-{6-[(3S)-3-[tert-butyl(methyl)amino]pyrrolidin-1-yl]pyridazin-3-yl}-4-fluoro-5-(2-methyl-1,3-thiazol-5-yl) phenol]
IC50 (Target C mRNA): < 100 nM | AC50 (MYB mRNA; [1]): < 100 nM | IC50 (MYB mRNA; [2]): < 100 nM | IC50 (MYB mRNA; [3]): < 100 nM | IC50 (SMN2 mRNA): < 100 nM | AC50 (HTT mRNA; [1]): < 100 nM | IC50 (HTT mRNA; [4]): < 100 nM | IC50 (HTT mRNA; [5]): < 100 nM

Cc1ccc(-c2ccc(-c3ccc(N4CCC(NC5CCC5)C4)nn3)c(O)c2)o1 (centres unmarked) [Compound 325, 2-{6-[3-(cyclobutylamino)pyrrolidin-1-yl]pyridazin-3-yl}-5-(5-methylfuran-2-yl)phenol]
IC50 (Target C mRNA): 1000 to 10000 nM | AC50 (MYB mRNA; [1]): 1000 to 10000 nM | IC50 (MYB mRNA; [2]): 1000 to 10000 nM | IC50 (MYB mRNA; [3]): 1000 to 10000 nM | IC50 (SMN2 mRNA): 1000 to 10000 nM | AC50 (HTT mRNA; [1]): 1000 to 10000 nM | IC50 (HTT mRNA; [4]): 1000 to 10000 nM | IC50 (HTT mRNA; [5]): 1000 to 10000 nM

Cc1nc2c(F)cc(-c3ccc(-c4ccc(N5CCC(NC6CCC6)C5)nn4)c(O)c3)cc2o1 (centres unmarked) [Compound 326]
IC50 (Target C mRNA): 100 to 1000 nM | AC50 (MYB mRNA; [1]): 100 to 1000 nM | IC50 (MYB mRNA; [2]): 100 to 1000 nM | IC50 (MYB mRNA; [3]): 100 to 1000 nM | IC50 (SMN2 mRNA): < 100 nM | AC50 (HTT mRNA; [1]): 100 to 1000 nM | IC50 (HTT mRNA; [4]): < 100 nM | IC50 (HTT mRNA; [5]): < 100 nM

Cc1cn2cc(-c3ccc(-c4ccc(N5CCC(NC6CCC6)C5)nn4)c(O)c3)ncc2n1 (centres unmarked) [Compound 327]
IC50 (Target C mRNA): 1000 to 10000 nM | AC50 (MYB mRNA; [1]): 100 to 1000 nM | IC50 (MYB mRNA; [2]): 1000 to 10000 nM | IC50 (MYB mRNA; [3]): 1000 to 10000 nM | IC50 (SMN2 mRNA): < 100 nM | AC50 (HTT mRNA; [1]): 100 to 1000 nM | IC50 (HTT mRNA; [4]): 100 to 1000 nM | IC50 (HTT mRNA; [5]): 100 to 1000 nM

Cn1cc2cc(-c3ccc(-c4ccc(N5CCC(NC6CCC6)C5)nn4)c(O)c3)cc(F)c2n1 (centres unmarked) [Compound 328]
IC50 (Target C mRNA): 100 to 1000 nM | AC50 (MYB mRNA; [1]): 100 to 1000 nM | IC50 (MYB mRNA; [2]): 100 to 1000 nM | IC50 (MYB mRNA; [3]): 100 to 1000 nM | IC50 (SMN2 mRNA): < 100 nM | AC50 (HTT mRNA; [1]): < 100 nM | IC50 (HTT mRNA; [4]): < 100 nM | IC50 (HTT mRNA; [5]): < 100 nM

Cc1ncc(-c2ccc(-c3ccc(OC4CC(C)(C)NC(C)(C)C4)nn3)c(O)c2)s1 [Compound 329]
IC50 (Target C mRNA): < 100 nM | AC50 (MYB mRNA; [1]): 100 to 1000 nM | IC50 (MYB mRNA; [2]): 100 to 1000 nM | IC50 (MYB mRNA; [3]): 100 to 1000 nM | IC50 (SMN2 mRNA): < 100 nM | AC50 (HTT mRNA; [1]): < 100 nM | IC50 (HTT mRNA; [4]): < 100 nM | IC50 (HTT mRNA; [5]): < 100 nM

Cc1ncc(-c2cc(O)c(-c3ccc(N4CCC(CNC(C)(C)C)C4)nn3)cc2F)s1 (centres unmarked) [Compound 333]
IC50 (Target C mRNA): > 10000 nM | AC50 (MYB mRNA; [1]): > 10000 nM | IC50 (MYB mRNA; [2]): > 10000 nM | IC50 (MYB mRNA; [3]): > 10000 nM | IC50 (SMN2 mRNA): 1000 to 10000 nM | AC50 (HTT mRNA; [1]): > 10000 nM | IC50 (HTT mRNA; [4]): 1000 to 10000 nM | IC50 (HTT mRNA; [5]): 1000 to 10000 nM
